Columns and labels:
Type in all cases: cell-based, human
[1] = system: latex specific T cell lines; assay: Oligoclonal T cell proliferation assay (3H-thymidine incorporation); set-up: key to Proliferation inducing (+) or non-inducing (−) peptide: Proliferation inducing and non-inducing peptides are indicated by (+) and (−) respectively; Proliferation inducing and non-inducing peptides are indicated by (+) and (−) respectively; conditions: for Oligoclonal proliferative response: 4 day cultures
Protocol: Latex specific T cell lines were isolated using our well established methods for the generation of allergen specific oligoclonal T cell populations (O'Hehir et al., 1987). An initial primary culture was performed for each patient to determine the optimal concentration of LAL for stimulation. For this, peripheral blood mononuclear cells (PBMC) separated from heparinised venous blood by density centrifugation (2×10^5/well) were stimulated with LAL over a concentration range 0.03 to 100 μg/ml, with control cultures of PBMC alone or stimulated with tetanus toxoid. All cultures were maintained in complete medium (RPMI-1640, Gibco Life Technologies supplemented with 2 mmol/L L-glutamine, 100 IU/ml penicillin-streptomycin and 5% screened, heat inactivated human AB serum [Sigma]). […] Therefore, to generate T cell lines, PBMC (2.5×10^6/well) were stimulated for 1 week with LAL at a concentration of 20 μg/ml in 24-well tissue culture plates (Costar, USA). After 7 days, lymphoblasts (1×10^6/well) were restimulated for one week with LAL at a concentration of 20 μg/ml in the presence of an equal number of irradiated (3000 rad) autologous PBMC as antigen presenting cells (APC). On days 2 and 4, cultures were supplemented with Lymphocult-T (5% v/v; Biotest Folex, Germany) and fresh medium. At the end of the second week, lymphoblasts were restimulated for one week with rhev b 5/MBP at a concentration of 20 μg/ml as described above. Oligoclonal T cells were recovered, washed and tested in proliferation and cytokine assays (as described below) either fresh or after cryopreservation in liquid nitrogen. We have previously shown that CD4^+ T cells are preferentially expanded in these cultures.
Oligoclonal T cell blasts (5×10^4) were incubated in 96-well round bottom plates (Linbro, ICN Biomedicals, USA) in triplicate with equal numbers of irradiated APC in the presence of LAL at concentrations ranging from 0.03-100 μg/ml, rHev b 5/MBP (10 and 20 μg/ml), MBP (10 and 20 μg/ml), overlapping peptides of the Hev b 5 sequence (10 and 30 μg/ml), Lymphocult-T (10 IU/ml) or PHA (3 μg/ml). Cultures of T cells and APC in the absence of antigen, T cells alone and APC alone in the absence of antigen were included as controls. After 72 hours cultures were pulsed with 1 μCi of ^3H-thymidine (^3HTdR; Du Pont, NEN) and harvested 12-16 hours later. Proliferation as correlated with ^3HTdR incorporation was measured by liquid scintillation spectroscopy. Results are expressed as mean counts per minute (cpm) for triplicate cultures with standard deviation (SD; ±20% for all experiments).

[2] = system: IL-5; assay: IL-5 production by latex specific oligoclonal T cells (ELISA on culture supernatants); conditions: for IL-5: supernatant at 48 hours; for secretion of IL-5 (in words): patient 4 T cell line
Protocol: (§1) Representative stimulatory and non-stimulatory peptides were selected and T cells cultured in triplicate with these peptides. At 48 hours 50 μl of supernatant was harvested from the cultures and IL-5 and IFNγ were assayed by ELISA using paired cytokine antibodies (from Pharmingen Becton Dickinson, USA and Endogen, USA respectively). For this, opaque flat bottom ELISA plates (Nalgene, Nunc International) were coated with 30 μl capture antibody at 2 μg/ml in 0.1 M NaHCO3 pH 8.2 coating buffer overnight at 4° C. After washing three times with PBS/0.5% Tween the wells were blocked with 3% BSA/PBS at room temperature for 2 hours. The plates were washed and 30 μL pooled triplicate culture supernatants added in duplicate. […] Light emission was read immediately on a Lumicount microplate Glow Luminometer (Packard Instrument Company). A standard curve was run each time using known concentrations of standard cytokine samples and the concentrations of IL-S and IFNγ in the culture supernatants calculated accordingly. The lower limit of detection of the IL-5 assay was 20 pg/ml and the lower limit of detection of the IFN-γ assay was 2 pg/ml.

[3] = system: IFNγ; assay: IFNγ production by latex specific oligoclonal T cells (ELISA on culture supernatants); conditions: supernatant at 48 hours
Protocol: as §1

[4] = P1 T cell line, antigen 10 μg/ml
[5] = P1 T cell line, antigen 30 μg/ml
[6] = P2 T cell line, antigen 10 μg/ml
[7] = P2 T cell line, antigen 30 μg/ml
[8] = P3 T cell line, antigen 10 μg/ml
[9] = P3 T cell line, antigen 30 μg/ml
[10] = P4 T cell line, antigen 10 μg/ml
[11] = P4 T cell line, antigen 30 μg/ml
[12] = P5 T cell line, antigen 10 μg/ml
[13] = P5 T cell line, antigen 30 μg/ml
[14] = P6 T cell line, antigen 10 μg/ml
[15] = P6 T cell line, antigen 30 μg/ml
[16] = P1 T cell line, peptide 10 μg/ml
[17] = P1 T cell line, peptide 30 μg/ml
[18] = P2 T cell line, peptide 10 μg/ml
[19] = P2 T cell line, peptide 30 μg/ml
[20] = P4 T cell line, peptide 10 μg/ml
[21] = P4 T cell line, peptide 30 μg/ml

Sequence | Oligoclonal proliferative response [1, 4] | Oligoclonal proliferative response [1, 5] | Oligoclonal proliferative response [1, 6] | Oligoclonal proliferative response [1, 7] | Oligoclonal proliferative response [1, 8] | Oligoclonal proliferative response [1, 9] | Oligoclonal proliferative response [1, 10] | Oligoclonal proliferative response [1, 11] | Oligoclonal proliferative response [1, 12] | Oligoclonal proliferative response [1, 13] | Oligoclonal proliferative response [1, 14] | Oligoclonal proliferative response [1, 15] | Proliferation inducing (+) or non-inducing (−) peptide ([1]; P1 T cell line) | Proliferation inducing (+) or non-inducing (−) peptide ([1]; P2 T cell line) | Proliferation inducing (+) or non-inducing (−) peptide ([1]; P4 T cell line) | IL-5 [2, 16] | IL-5 [2, 17] | IL-5 [2, 18] | IL-5 [2, 19] | IL-5/IFNγ ratio [2, 20] | also measured
AEEEKPITEAAETATTEVPV [Hev b 5 (127-146)] | 3.3 counts per minute × 10^−3 | 4.4 counts per minute × 10^−3 | 3.8 counts per minute × 10^−3 | 6.6 counts per minute × 10^−3 | 7.1 counts per minute × 10^−3 | 8.3 counts per minute × 10^−3 | 2.2 counts per minute × 10^−3 | 1.6 counts per minute × 10^−3 | 2.7 counts per minute × 10^−3 | 2.5 counts per minute × 10^−3 | 1.0 counts per minute × 10^−3 | 0.8 counts per minute × 10^−3 |  |  |  |  |  |  |  |  | 
APAEPEAPAPETEKAEEVEK [Hev b 5 (55-74)] | 5.0 counts per minute × 10^−3 | 7.7 counts per minute × 10^−3 | 2.8 counts per minute × 10^−3 | 5.6 counts per minute × 10^−3 | 9.1 counts per minute × 10^−3 | 8.2 counts per minute × 10^−3 | 2.0 counts per minute × 10^−3 | 2.8 counts per minute × 10^−3 | 1.1 counts per minute × 10^−3 | 0.7 counts per minute × 10^−3 | 0.7 counts per minute × 10^−3 | 0.9 counts per minute × 10^−3 | 55-74 (−) | 55-74 (−) | 55-74 (+) | 0 pg/mL | 0 pg/mL | 0 pg/mL | 0 pg/mL | 70 | IL-5 [2, 20]: 70 pg/mL; IL-5/IFNγ ratio [2, 21]: 199; IL-5 [2, 21]: 199 pg/mL; secretion of IL-5 (in words) [2]: secretion of IL-5; IFNγ [3, 16]: 0 pg/mL; IFNγ [3, 17]: 0 pg/mL; IFNγ [3, 18]: 2 pg/mL; IFNγ [3, 19]: 4 pg/mL; IFNγ [3, 20]: 0 pg/mL; IFNγ [3, 21]: 0 pg/mL
ASEQETADATPEKEEPTAAP [Hev b 5 (37-56)] | 7.1 counts per minute × 10^−3 | 8.5 counts per minute × 10^−3 | 18.3 counts per minute × 10^−3 | 38.8 counts per minute × 10^−3 | 8.8 counts per minute × 10^−3 | 2.7 counts per minute × 10^−3 | 3.0 counts per minute × 10^−3 | 3.2 counts per minute × 10^−3 | 1.4 counts per minute × 10^−3 | 1.1 counts per minute × 10^−3 | 1.4 counts per minute × 10^−3 | 0.9 counts per minute × 10^−3 | 37-56 (−) | 37-56 (+) | 37-56 (+) | 0 pg/mL | 0 pg/mL | 744 pg/mL | 767 pg/mL | 173 | IL-5/IFNγ ratio [2, 18]: 10.1; IL-5/IFNγ ratio [2, 19]: 10; IL-5 [2, 20]: 173 pg/mL; IL-5/IFNγ ratio [2, 21]: 49.3; IL-5 [2, 21]: 296 pg/mL; secretion of IL-5 (in words) [2]: secretion of IL-5; IFNγ [3, 16]: 0 pg/mL; IFNγ [3, 17]: 0 pg/mL; IFNγ [3, 18]: 74 pg/mL; IFNγ [3, 19]: 77 pg/mL; IFNγ [3, 20]: 0 pg/mL; IFNγ [3, 21]: 6 pg/mL
